From PubChem BioAssay AID248 (DTP/NCI, 2004) come the findings set out here.

Where “and” joins values, the source holds several entries; their conditions need not be identical. Equal entries are not always repeated. Toxic doses and inconclusive results are not listed.

The test system of the test is L1210 leukemia ip in BDF1 mice, survival T/C. As to the kind of experiment: NCI In Vivo Anticancer Drug Screen. Data for tumor model L1210 Leukemia (intraperitoneal) in B6D2F1 (BDF1) mice. The conditions noted are these: endpoint: mean survival time, higher = longer survival. Summed up:
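Transplantable tumor model; survival measured in treated vs vehicle control mice. Value = treated/control.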

Where [1] appears, read: dose: 100.0 mg/kg/injection, schedule: Q01DX009 (ip), vehicle: Klucel (hydroxypropylcellulose) (HPC).
Setting [2] is: dose: 100.0 mg/kg/injection, schedule: Q04DX003 (ip), vehicle: Klucel (hydroxypropylcellulose) (HPC).
Setting [3] is: dose: 200.0 mg/kg/injection, schedule: Q01DX009 (ip), vehicle: Klucel (hydroxypropylcellulose) (HPC).
[4] abbreviates: dose: 200.0 mg/kg/injection, schedule: Q04DX003 (ip), vehicle: Klucel (hydroxypropylcellulose) (HPC).
[5] abbreviates: dose: 400.0 mg/kg/injection, schedule: Q04DX003 (ip), vehicle: Klucel (hydroxypropylcellulose) (HPC).
[6] abbreviates: dose: 6.25 mg/kg/injection, schedule: Q01DX009 (ip), vehicle: saline.
Where [7] appears, read: dose: 12.5 mg/kg/injection, schedule: Q01DX009 (ip), vehicle: saline.
[8] abbreviates: dose: 25.0 mg/kg/injection, schedule: Q01DX009 (ip), vehicle: saline.
[9] abbreviates: dose: 100.0 mg/kg/injection, schedule: Q01DX009 (ip), vehicle: saline.
[10] abbreviates: dose: 100.0 mg/kg/injection, schedule: Q04DX003 (ip), vehicle: saline.
[11] abbreviates: dose: 200.0 mg/kg/injection, schedule: Q01DX009 (ip), vehicle: saline.
Setting [12] is: dose: 200.0 mg/kg/injection, schedule: Q04DX003 (ip), vehicle: saline.

For the molecule `O=P(Oc1ccc(OP(=O)(N2CC2)N2CC2)cc1)(N1CC1)N1CC1`, the T/C is 96 % of control (dose: 9.0 mg/kg/injection, schedule: Q01DX009 (ip), vehicle: saline); 98 % of control (dose: 9.5 mg/kg/injection, schedule: Q01DX001 (ip), vehicle: saline); 110 % of control (dose: 13.0 mg/kg/injection, schedule: Q01DX009 (ip), vehicle: saline); 110 % of control (dose: 19.0 mg/kg/injection, schedule: Q01DX001 (ip), vehicle: saline); 104 % of control (dose: 20.0 mg/kg/injection, schedule: Q01DX009 (ip), vehicle: saline); 103 % of control (dose: 22.0 mg/kg/injection, schedule: Q01DX Z (ip), vehicle: other). In addition, the T/C runs as follows: (dose: 32.0 mg/kg/injection, schedule: Q01DX009 (ip), vehicle: saline) 100 % of control; (dose: 33.0 mg/kg/injection, schedule: Q01DX Z (ip), vehicle: other) 104 % of control; (dose: 38.0 mg/kg/injection, schedule: Q01DX001 (ip), vehicle: saline) 102 % of control; (dose: 50.0 mg/kg/injection, schedule: Q01DX Z (ip), vehicle: other) 114 % of control; (dose: 54.0 mg/kg/injection, schedule: Q01DX009 (ip), vehicle: saline) 186 % of control; (dose: 75.0 mg/kg/injection, schedule: Q01DX Z (ip), vehicle: other) 123 % of control. The T/C runs as follows: (dose: 90.0 mg/kg/injection, schedule: Q01DX009 (ip), vehicle: saline) 166 % of control; (dose: 150.0 mg/kg/injection, schedule: Q01DX009 (ip), vehicle: saline) 101 % of control; (dose: 300.0 mg/kg/injection, schedule: Q01DX001 (ip), vehicle: saline) 153 % of control.

Turning to `CC1(CCCOc2ccccc2C(=O)NCBr)N=C(N)N=C(N)N1c1ccccc1` (stereo not drawn), the T/C (dose: 100.0 mg/kg/injection, schedule: Q01DX001 (ip), vehicle: Klucel (hydroxypropylcellulose) (HPC)) was 104 % of control.

With `CCOC(=O)c1oc2ccc(OC)c(C(C)=O)c2c1C`, the T/C was 103 % of control (dose: 100.0 mg/kg/injection, schedule: Q04DX002 (ip), vehicle: saline with Tween-80); 107 % of control (dose: 200.0 mg/kg/injection, schedule: Q04DX002 (ip), vehicle: saline with Tween-80); 94 % of control (dose: 400.0 mg/kg/injection, schedule: Q04DX002 (ip), vehicle: saline with Tween-80).

Regarding `CCCCC(C(C)=O)C(C)C` (stereo not drawn), the T/C is 94 % of control under setting [1]; 100 % of control under setting [2]; 91 % of control under setting [3]; 96 % of control under setting [4]; 95 % of control (dose: 400.0 mg/kg/injection, schedule: Q01DX009 (ip), vehicle: Klucel (hydroxypropylcellulose) (HPC)); 92 % of control under setting [5].

Consider `CCCCCC#CCCCCl`, for which the T/C (dose: 50.0 mg/kg/injection, schedule: Q01DX001 (ip), vehicle: carboxymethylcellulose (CMC)) is 101 % of control; the T/C (dose: 50.0 mg/kg/injection, schedule: Q01DX009 (ip), vehicle: carboxymethylcellulose (CMC)) is 95 % of control and 97 % of control; the T/C (dose: 50.0 mg/kg/injection, schedule: Q04DX003 (ip), vehicle: carboxymethylcellulose (CMC)) was 98 % of control; the T/C (dose: 100.0 mg/kg/injection, schedule: Q01DX001 (ip), vehicle: carboxymethylcellulose (CMC)) is 96 % of control; the T/C (dose: 100.0 mg/kg/injection, schedule: Q01DX009 (ip), vehicle: carboxymethylcellulose (CMC)) was 93 % of control and 95 % of control; the T/C (dose: 100.0 mg/kg/injection, schedule: Q04DX002 (ip), vehicle: carboxymethylcellulose (CMC)) was 95 % of control and 97 % of control. Besides, the T/C (dose: 100.0 mg/kg/injection, schedule: Q04DX003 (ip), vehicle: carboxymethylcellulose (CMC)) is 102 % of control; the T/C (dose: 200.0 mg/kg/injection, schedule: Q01DX001 (ip), vehicle: carboxymethylcellulose (CMC)) is 91 % of control; the T/C (dose: 200.0 mg/kg/injection, schedule: Q01DX009 (ip), vehicle: carboxymethylcellulose (CMC)) was 95 % of control; the T/C (dose: 200.0 mg/kg/injection, schedule: Q04DX002 (ip), vehicle: carboxymethylcellulose (CMC)) was 100 % of control and 107 % of control; the T/C (dose: 200.0 mg/kg/injection, schedule: Q04DX003 (ip), vehicle: carboxymethylcellulose (CMC)) is 94 % of control.

Regarding `C(CSC1=NCCN1)CSC1=NCCN1`, the T/C under setting [6] is 105 % of control; the T/C under setting [7] was 111 % of control; the T/C under setting [8] is 107 % of control; the T/C (dose: 50.0 mg/kg/injection, schedule: Q01DX009 (ip), vehicle: saline) is 117 % of control; the T/C under setting [9] was 115 % of control; the T/C under setting [10] is 100 % of control. Further, the T/C is 115 % of control under setting [11] and 108 % of control under setting [12].

With `CCSc1nc(N)c(C(N)=O)cc1C#N`, the T/C was 95 % of control under setting [1]; 101 % of control under setting [2]; 95 % of control under setting [3]; 98 % of control under setting [4]; 97 % of control under setting [5].

For the molecule `CN1CCC(C=C2c3ccccc3CCc3ccccc32)C1` (stereo not drawn), the T/C runs as follows: (dose: 3.12 mg/kg/injection, schedule: Q01DX009 (ip), vehicle: saline) 100 % of control; under setting [6], 92 % of control; under setting [7], 100 % of control; under setting [8], 98 % of control.

For the molecule `O=C1c2cccc3cccc(c23)C(=O)N1CCc1ccccn1`, the T/C reads like this: under setting [1], 91 % of control; under setting [3], 92 % of control.

Turning to `COc1ccc(/C=N/NC(=O)c2ccccc2OC)cc1`, the T/C is 108 % of control under setting [9]; 108 % of control under setting [10]; 104 % of control (dose: 130.0 mg/kg/injection, schedule: Q01DX009 (ip), vehicle: saline); 92 % of control under setting [11]; 102 % of control under setting [12]; 92 % of control (dose: 300.0 mg/kg/injection, schedule: Q01DX009 (ip), vehicle: saline). The T/C is 114 % of control (dose: 400.0 mg/kg/injection, schedule: Q01DX009 (ip), vehicle: saline) and 102 % of control (dose: 400.0 mg/kg/injection, schedule: Q04DX003 (ip), vehicle: saline).
